# Results published in publication PMC9764201, “Half-calcified calmodulin promotes basal activity and inactivation of the L-type calcium channel CaV1.2” (The Journal of Biological Chemistry, 2022).
# Ends that are not written are not given here.
# How the values were obtained:
# Ca2/CaM12’ = biological target: T1, Ca2/CaM12’ (Xenopus laevis, UniProt P0DP33, D21A/D23A/D25A/D57A/D59A/E32Q/E68Q/N61A); test: ITC of Ca2/CaM12’ binding to IQ peptides; settings: 27 °C; for n-value (stoichiometry) / ΔH: SD from three independent trials
# T1 construct: made in house; host or cells: E. coli BL21(DE3) Codon Plus, pET11d
# [1] = biological target: fluorescein-labeled CaV1.2 IQ peptide Y1657D (rat); test: fluorescence polarisation; fluorescein-labeled peptide (100 nM) titrated with apoCaM in Ca2+-free buffer: 20 mM Tris, pH 7.4, 100 mM KCl, 1 mM MgCl2, 2.0 mM EGTA
molecule,measurement,setting,value
CC(C)C[C@H](NC(=O)[C@H](Cc1ccccc1)NC(=O)[C@@H](NC(=O)[C@H](C)NC(=O)[C@H](Cc1ccc(O)cc1)NC(=O)[C@H](Cc1ccccc1)NC(=O)[C@H](CCCCN)NC(=O)CNC(=O)[C@@H](NC(=O)[C@@H](N)[C@@H](C)O)C(C)C)[C@@H](C)O)C(=O)N[C@@H](C)C(=O)N[C@@H](CCC(N)=O)C(=O)N[C@@H](CCC(=O)O)C(=O)N[C@@H](Cc1ccc(O)cc1)C(=O)N[C@@H](Cc1ccccc1)C(=O)N[C@@H](CCCNC(=N)N)C(=O)N[C@@H](CCCCN)C(=O)N[C@@H](Cc1ccccc1)C(=O)N[C@@H](CCCCN)C(=O)N[C@@H](CCCCN)C(=O)N[C@@H](CCCNC(=N)N)C(=O)O [IQ^I1654A],binding to Ca2/CaM12’ compared to IQ^WT,Ca2/CaM12’,weaker binding
CC[C@H](C)[C@H](NC(=O)[C@H](CC(C)C)NC(=O)[C@H](Cc1ccccc1)NC(=O)[C@@H](NC(=O)[C@H](C)NC(=O)[C@H](C)NC(=O)[C@H](Cc1ccccc1)NC(=O)[C@H](CCCCN)NC(=O)CNC(=O)[C@@H](NC(=O)[C@@H](N)[C@@H](C)O)C(C)C)[C@@H](C)O)C(=O)N[C@@H](CCC(N)=O)C(=O)N[C@@H](CCC(=O)O)C(=O)N[C@@H](Cc1ccc(O)cc1)C(=O)N[C@@H](Cc1ccccc1)C(=O)N[C@@H](CCCNC(=N)N)C(=O)N[C@@H](CCCCN)C(=O)N[C@@H](Cc1ccccc1)C(=O)N[C@@H](CCCCN)C(=O)N[C@@H](CCCCN)C(=O)N[C@@H](CCCNC(=N)N)C(=O)O [IQ^Y1649A],binding to Ca2/CaM12’ compared to IQ^WT,Ca2/CaM12’,weaker binding
same,n-value (stoichiometry),Ca2/CaM12’,0.88 ± 0.25
same,ΔH,Ca2/CaM12’,-9.7 ± 0.2 kcal/mol
TVGKFYATFLIQEYARKFKKR [IQ^F1658A],n-value (stoichiometry),Ca2/CaM12’,1.0 ± 0.25
same,ΔH,Ca2/CaM12’,-9.5 ± 0.2 kcal/mol
CC[C@H](C)[C@H](NC(=O)[C@H](CC(C)C)NC(=O)[C@H](Cc1ccccc1)NC(=O)[C@@H](NC(=O)[C@H](C)NC(=O)[C@H](Cc1ccc(O)cc1)NC(=O)[C@H](Cc1ccccc1)NC(=O)[C@H](CCCCN)NC(=O)CNC(=O)[C@@H](NC(=O)[C@@H](N)[C@@H](C)O)C(C)C)[C@@H](C)O)C(=O)N[C@@H](CCC(N)=O)C(=O)N[C@@H](CCC(=O)O)C(=O)N[C@@H](Cc1ccc(O)cc1)C(=O)N[C@@H](CC(=O)O)C(=O)N[C@@H](CCCNC(=N)N)C(=O)N[C@@H](CCCCN)C(=O)N[C@@H](Cc1ccccc1)C(=O)N[C@@H](CCCCN)C(=O)N[C@@H](CCCCN)C(=O)N[C@@H](CCCNC(=N)N)C(=O)O [IQ^F1658D],binding to Ca2/CaM12’ compared to IQ^WT,Ca2/CaM12’,weaker binding
same,n-value (stoichiometry),Ca2/CaM12’,0.8 ± 0.5
same,ΔH,Ca2/CaM12’,-5.9 ± 0.7 kcal/mol
CC[C@H](C)[C@H](NC(=O)[C@H](CC(C)C)NC(=O)[C@H](Cc1ccccc1)NC(=O)[C@@H](NC(=O)[C@H](C)NC(=O)[C@H](Cc1ccc(O)cc1)NC(=O)[C@H](Cc1ccccc1)NC(=O)[C@H](CCCCN)NC(=O)CNC(=O)[C@@H](NC(=O)[C@@H](N)[C@@H](C)O)C(C)C)[C@@H](C)O)C(=O)N[C@@H](CCC(N)=O)C(=O)N[C@@H](CCC(=O)O)C(=O)N[C@@H](CC(=O)O)C(=O)N[C@@H](Cc1ccccc1)C(=O)N[C@@H](CCCNC(=N)N)C(=O)N[C@@H](CCCCN)C(=O)N[C@@H](Cc1ccccc1)C(=O)N[C@@H](CCCCN)C(=O)N[C@@H](CCCCN)C(=O)N[C@@H](CCCNC(=N)N)C(=O)O [IQ^Y1657D],binding to Ca2/CaM12’ compared to IQ^WT,Ca2/CaM12’,weaker binding
apoCaM (Ca2+-free calmodulin) (from UniProt P0DP33 1-149) (natural protein),Kd,[1],60 µM
